Test system: SAPK
Experiment: SAPK tyrosine phosphorylation (anti-SAPK IP, anti-PY immunoblot)
Assay type: cell-based, human
Details: 10 mM, time course, vs tempol or untreated controls
Method: FIGS. 5A, 5B, 5C. Tempo stimulates tyrosine phosphorylation and activity of SAPK. […] 5A. WCLs (1 mg) were immunoprecipitated with agarose-conjugated anti-SAPK antibody, followed by immunoblotting with anti-PY MAb. 5B. In other independent experiments, anti-SAPK immunoprecipitates were first probed with anti-PY MAb (top), and the blot was then reprobed with anti-SAPK antibody (bottom). 5C. […] WCLs were immunoprecipitated with anti-JNK1 antibody, and the JNK1 activity in immunoprecipitates was measured using GST-cJun (˜41 kDa) as a substrate. UT, untreated cells grown overnight in serum-free medium; CONT/Control, cells grown in serum-free medium overnight, and treated with 1% ethanol for 2 h.
Immunoprecipitation and Immunoblotting—Whole cell lysate (1 mg) was immunoprecipitated with the appropriate agarose-conjugated antibody (1 ug/ml of lysis buffer) overnight at 4° C. with constant agitation. For SAPK immunoprecipitation, WCL (1 mg) was immunoprecipitated with anti-SAPK antibody (5 ug/ml) overnight followed by addition of protein A-Agarose (50 ul of 250 ul/ml stock) and incubation for 2 h at 4° C. Immune-complex beads were collected by microcentrifugation at 15,000×g for 5 min followed by three washes with lysis buffer. […] The bands of interest were quantified by ImageQuant software version 3.3 (Molecular Dynamics Personal Densitometer, Sunnyvale, Calif.). […]

## CC1(C)CCCC(C)(C)N1[O] [tempo, 2,2,6,6-tetramethylpiperidine-N-oxyl]
  level of phosphorylated SAPK (SAPKP): significant increase

— patent US7074807B2, “Compositions and methods for inducing cell death” (Georgetown University, priority 1998, dated 2006)
